We go through 1 compound from patent US10376487B2, “Method of treatment” (Vanda Pharmaceuticals, Inc., priority 2013, dated 2019).

This data set can be described thus: Clinical food-effect study: pharmacokinetics of a 100 mg tasimelteon capsule with or without a high-fat/high-calorie meal. It is filed as in vivo, human. The note with it: for Cmax / Tmax: human, in vivo, po. As to the method: A clinical study was undertaken to investigate the effects of food on administration of tasimelteon. Specifically, the primary objective of the study was to investigate the influence of food (high-calorie/high-fat) on the pharmacokinetics of 100 mg of tasimelteon in healthy subjects. This was a single-center, open-label, crossover design which lasted up to 5 weeks. 26 Healthy male and female subjects (18-50 years old) were enrolled in the study. There was a 2-period, randomized, 2-sequence crossover design where each subject received 100 mg tasimelteon either with or without food. Subjects were randomly assigned to receive a 100 mg tasimelteon capsule under fasted conditions or a 100 mg tasimelteon capsule under fed conditions (i.e., 30 minutes after beginning to ingest a high-fat meal). There was a 7-day washout between treatment groups. FIG. 1 depicts an example of the overall study design. In FIG. 1, tasimelteon is referred to as VEC-162.
For purposes of the study depicted in FIG. 1, administration under fasted conditions was administration with 240 mL of water at approximately 6:00 AM, after at least a 10-hour fast. Subjects were not allowed to eat any food for at least 4 hours postdose. Subjects were allowed to drink water as desired except 1 hour before and 2 hours after drug administration.
Administration under fed conditions was administration with 240 mL of water at approximately 6:00 AM, after a high-fat/high=calorie breakfast, which included one cup of milk. Subjects began the recommended meal 30 minutes prior to drug administration. Subjects finished eating the meal in 30 minutes or less and the drug was administered approximately 30 minutes after the start of the meal. Subjects were not allowed to eat any food for at least 4 hours postdose. Subjects were allowed to drink water as desired except 1 hour before and 2 hours after drug administration.
25 Subjects completed both periods of the study.

Where [1] appears, read: fed vs fasted, 100 mg oral, 90% CI within 80% to 125%.
Setting [2] is: with a high-fat/high calorie meal vs fasted.

Read-outs that look alike come from different tables or passages of the source.

For `CCC(=O)NC[C@@H]1C[C@H]1c1cccc2c1CCO2` [tasimelteon], the “Cmax lower than when given in a fasted state” value (administered with a high-fat meal, illustrative prescribing information language) was 44%. The compound further registered a Cmax (both sexes, 100 mg, healthy subjects, 100 mg oral capsule, fasted conditions) of 786 ng/mL. In addition, the Cmax (both sexes, 100 mg, healthy subjects, 100 mg oral capsule, fed conditions (high-fat/high-calorie meal)) worked out at 445 ng/mL. Further, the Tmax (both sexes, 100 mg, healthy subjects, 100 mg oral capsule, fed conditions (high-fat/high-calorie meal), read-out: median Tmax) was determined as 2.5 h. In addition, under setting [1], the “AUC(0-t) geometric mean ratio” value was 108.57% and the “AUC(Inf) geometric mean ratio” value is recorded as 106.54%. The “Cmax geometric mean ratio” value (fed vs fasted, 100 mg oral, 90% confidence interval 49.72% to 62.67%) worked out at 55.82%. The Tmax (after fasted oral administration, illustrative prescribing information language, read-out: peak concentration (Tmax)) fell in the range of 0.5 to 3 h. Further, under setting [2], the extent of absorption result was “no significant change” and the rate of absorption entry is given as “significant decrease”.
